Assay results reported in CN114767685A, “四氢叶酸在抑菌或者预防或治疗眼部疾病中的用途” (Peking University Third Hospital Peking University Third …, priority 2022, dated 2022).

Columns and labels:
Fusarium (镰刀菌) [1] = assay: Inhibition of Fusarium colony growth on solid medium with proline as sole nitrogen source (pro- medium); type: cell-based, Fusarium (CGMCC3.5840); settings: 29℃, 72 h, Figure 2
Fusarium (镰刀菌) [2] = assay: Inhibition of Fusarium on solid media with mixed amino acids as nitrogen source (simulated cornea); type: cell-based; settings: THFA 10 mM, cultured as Example 1
Fusarium (镰刀菌) [3] = assay: Fusarium growth curve (OD) in liquid amino acid media, 96-well plate; type: cell-based; settings: THFA 10 mM, each amino acid group, 29℃, 72 h, Figure 5B-F

SMILES: Nc1nc2c(c(=O)[nH]1)N[C@H](CNc1ccc(C(=O)N[C@@H](CCC(=O)O)C(=O)O)cc1)CN2 [THFA, 5,6,7,8-四氢叶酸]
- correlation of degree of inhibition with THFA concentration (Fusarium (镰刀菌) [1]; THFA 0-20 mM): 抑制程度与THFA浓度具有相关性
- colony diameter (Fusarium (镰刀菌) [1]; THFA 5 mM): 明显小于2.5mM、1.25mM和0mM组
- colony diameter (Fusarium (镰刀菌) [1]; THFA 10 mM): 均显著小于5mM组
- colony diameter (Fusarium (镰刀菌) [1]; THFA 20 mM): 均显著小于5mM组
- inhibition of Fusarium growth (Fusarium (镰刀菌) [1]; THFA 1.25, 2.5, 5, 10, 20 mM vs 0 mM): 镰刀菌的生长受到明显抑制
- inhibition of Fusarium growth (Fusarium (镰刀菌) [2]; solid media with different mixed amino acid nitrogen sources (taurine, glutamine, glycine, proline), Figure 4): 均能够显著抑制镰刀菌生长
- colony pigment (Fusarium (镰刀菌) [2]; solid media with different mixed amino acids, Figure 4B-D): 色素明显减弱
- Fusarium growth (absorbance, OD, growth curve) (Fusarium (镰刀菌) [3]): 镰刀菌生长均明显下降
